The text below walks through data of US7799954B2, “Dicarbonyl derivatives and methods of use” (Abraxis BioScience, LLC, priority 2006, dated 2010).

In this assay the test system is MX-1 (human breast carcinoma) cells. The experiment in a line: in vitro growth inhibition, Promega CellTiter Blue Cell Viability Assay. Type of assay: cell-based. On the procedure:
The cytotoxicity assay was quantitated using the Promega CellTiter Blue Cell Viability Assay. Briefly, cells (5000 cells/well) were plated onto 96-well microtiter plates in RPMI 1640 medium supplemented with 10% FBS and incubated at […] in a humidified 5% CO2 atmosphere. After 24 h, cells were exposed to various concentrations of compound in DMSO and cultured for another 72 h. 100 ul of media were removed and 20 ul of Promega CellTiter Blue reagent were added to each well and shaken to mix. After 4 hours of incubation at 37° C. in a humidified 5% CO2 atmosphere, the plates were read at 544 ex/620 em. The fluorescence produced is proportional to the number of viable cells. After plotting fluorescence produced against drug concentration, the IC50 was calculated as the […] of the resulting non-linear regression.

The mark [1] stands for this setting: MX1, MX-1 cells, 72 h exposure, CellTiter Blue fluorescence 544 ex/620 em, read-out: IC50.

Read-outs that look alike come from different tables or passages of the source.

Turning to `O=C(/C=C/c1cccc(C(F)(F)F)c1)CC1CCC=CC1=O` (centres unmarked) [Compound 26], the IC50 under setting [1] was 2.59 µM.

In the case of `CCCN(C)C(=O)/C=C/C(=O)/C=C/c1ccccc1` [Compound 32], under setting [1], the IC50 amounted to 0.39 µM.

Where the note is “MX1, 72 h”, `COc1ccc(/C=C/C(=O)/C=C/C(=O)O)cc1OC` [Compound 29] displayed a 50% inhibitory concentration (IC50) of 29 µM.

As to `O=C(/C=C/c1cccc(Cl)c1)CCC(=O)/C=C/c1cccc(Cl)c1` [Compound 14], the IC50 (MX1, 72 h) is 55.7 µM.

As for `CCOC1=CC(=O)C(C2CCC(OCC)=CC2=O)CC1` (centres unmarked) [Compound 4], the IC50 (MX1, 72 h) is above 1000 µM.

For the compound `CO/N=C(\C=C\c1ccc(OC)c(OC)c1)CC1CCC=C/C1=N\OC` (centres unmarked) [Compound 42], under setting [1], the IC50 worked out at 128 µM.

As to `CCOC(=O)c1cc(/C=C/c2ccccc2)no1` [Compound 51], the IC50 under setting [1] is 533 µM.

With `CC(C)=CC(=O)CC1CCC=CC1=O` (centres unmarked) [Compound 19], under setting [1], the half-maximal inhibitory concentration (IC50) was 1.04 µM.

In turn, `COc1cc(/C=C/C(=O)/C=C/C(=O)O)cc(OC)c1OC` [Compound 30] displayed an IC50 (MX1, 72 h) of 34.2 µM.

Regarding `COc1ccc(/C=C/C(/C=C/C(=O)N2CCN(C)CC2)=NOCc2ccccc2)cc1OC` [Compound 48], the half-inhibitory concentration (IC50) under setting [1] was 23.4 µM.

For `COc1ccc(/C=C/C(=O)CCC(=O)/C=C/c2ccc(OC)c(OC)c2)cc1OC` [Compound 17], under setting [1], the IC50 stood at 73.1 µM.

Take `COc1cc(/C=C/C(=O)/C=C/C(=O)N2CCN(c3ccncc3)CC2)cc(OC)c1OC` [Compound 40]: the IC50 under setting [1] turned out to be 0.48 µM.

As to `CON=C(/C=C/C(=O)N1CCN(C)CC1)/C=C/c1ccc(OC)c(OC)c1` [Compound 46], under setting [1], the IC50 stood at 482 µM.

In turn, `O=C(/C=C/c1ccccc1)CC1CCC=CC1=O` (centres unmarked) [Compound 21] returned an IC50 (MX1, 72 h) of 0.42 µM.

`CC1(C)C=CC(=O)C(C2CC(C)(C)C=CC2=O)C1` (centres unmarked) [Compound 2] gave an IC50 (MX1, 72 h) of 56.8 µM.

In the case of `C/C=C/C(=O)C(C)C(C)C(=O)/C=C/C` (centres unmarked) [Compound 7], half-maximal inhibition (MX1, 72 h) (IC50) required 2.63 µM.

For the compound `COC(=O)/C=C/C(=O)Nc1ccc(F)cc1` [Compound 41], the IC50 under setting [1] was found to be 121 µM.

Turning to `CCCN(C)C(=O)/C=C/C(=O)/C=C/c1ccc(OC)c(OC)c1` [Compound 34], the IC50 under setting [1] is 0.28 µM.

On to `COc1ccc(/C=C/C(/C=C/C(=O)N2CCN(C)CC2)=NOc2ccccc2)cc1OC` [Compound 47], for which, under setting [1], the half-inhibitory concentration (IC50) is 8.73 µM.

Take `CN(C)C1=CC(=O)C(C2C(=O)C=C(N(C)C)CC2(C)C)C(C)(C)C1` (centres unmarked) [Compound 1]: the IC50 (MX1, 72 h) was above 1000 µM.

As to `O=C(O)c1cc(/C=C/c2ccccc2)no1` [Compound 50], the IC50 under setting [1] was above 1000 µM.

With `COc1cc(/C=C/C(=O)/C=C/C(=O)N2CCN(C)CC2)cc(OC)c1OC` [Compound 39], under setting [1], the IC50 is 0.8 µM.

`CC(C(=O)c1ccccc1)C(C)C(=O)c1ccccc1` (centres unmarked) [Compound 12]: under “MX1, 72 h”, the IC50 was above 1000 µM.

`O=C(/C=C/c1ccccc1)CCC(=O)/C=C/c1ccccc1` [Compound 13] registered an IC50 (MX1, 72 h) of 37.9 µM.

`O=C(O)/C=C/C(=O)/C=C/c1ccccc1` [Compound 28]: the IC50 (MX1, 72 h) was determined as 3.96 µM.

Take `O=C1OC(c2ccccc2)CC1C1CC(c2ccccc2)OC1=O` (centres unmarked) [Compound 9]: inhibition (MX1, 72 h) was half-maximal at 472 µM (IC50).

As for `O=C1c2ccccc2CCC1C1CCc2ccccc2C1=O` (centres unmarked) [Compound 6], where the note is “MX1, 72 h”, the IC50 is above 1000 µM.

With `CC(C)=CC(=O)CCC(=O)C=C(C)C` [Compound 11], inhibition (MX1, 72 h) was half-maximal at 10.3 µM (IC50).

For `CCOC(=O)CCC(=O)/C=C/c1ccccc1` [Compound 27], the IC50 under setting [1] turned out to be 77.5 µM.

As to `CON=C(/C=C/C(=O)N1CCN(C)CC1)/C=C/c1cc(OC)c(OC)c(OC)c1` [Compound 49], under setting [1], the half-maximal inhibitory concentration (IC50) was above 1000 µM.

For the compound `COc1ccc(/C=C/C(=O)/C=C/C(=O)N2CCN(C)CC2)cc1OC` [Compound 36], the 50% inhibitory concentration (IC50) under setting [1] came to 0.17 µM.

Consider `COc1ccc(/C=C/C(=O)CC2CCC=CC2=O)cc1OC` (centres unmarked) [Compound 23], for which half-maximal inhibition (MX1, 72 h) (IC50) required 0.17 µM.

Turning to `CC(C)=C/C=C/C(=O)CCC(=O)/C=C/C=C(C)C` [Compound 16], the IC50 under setting [1] is 16.2 µM.

Regarding `CCCN(C)C(=O)/C=C/C(/C=C/c1ccccc1)=N\OC` [Compound 43], under setting [1], the 50% inhibitory concentration (IC50) worked out at 171 µM.

For the compound `CCCN(C)C(=O)c1cc(/C=C/c2ccccc2)no1` [Compound 52], the IC50 under setting [1] came to 195 µM.

`C/C=C/C(=O)C(C)C1CCC=CC1=O` (centres unmarked) [Compound 20]: where the note is “MX1, 72 h”, it took 0.52 µM to reach half-maximal inhibition (IC50).

Turning to `CCOC(=O)/C=C/C(=O)/C=C/c1ccccc1` [Compound 31], the IC50 under setting [1] was determined as 2.17 µM.

Consider `O=C(/C=C/C(=O)Nc1ccccc1)/C=C/c1ccccc1` [Compound 33], for which the IC50 under setting [1] is 3.25 µM.

Compound `COc1ccc(/C=C/C(=O)/C=C/C(=O)N2CCN(c3ccncc3)CC2)cc1OC` [Compound 37] returned an IC50 (MX1, 72 h) of 0.12 µM.

For `COc1ccc(/C=C/C(/C=C/C(=O)N2CCN(C)CC2)=NO)cc1OC` [Compound 45], the IC50 under setting [1] is 371 µM.

As to `C/C=C/C(=O)C(C)CC(=O)/C=C/c1ccccc1` (centres unmarked) [Compound 22], the IC50 under setting [1] came out at 2.07 µM.

As to `CCCC/C=C/C(=O)CCC(=O)/C=C/CCCC` [Compound 15], the IC50 (MX1, 72 h) is 7.99 µM.

Turning to `COc1ccc(/C=C/C(=O)/C=C/C(=O)Nc2ccccc2)cc1OC` [Compound 35], the IC50 under setting [1] stood at 0.89 µM.

With `O=C1CCC(c2ccccc2)CC1C1CC(c2ccccc2)CCC1=O` (centres unmarked) [Compound 3], half-maximal inhibition (MX1, 72 h) (IC50) was put at 29.7 µM.

Compound `O=C(/C=C/c1ccc2c(c1)OCO2)CC1CCC=CC1=O` (centres unmarked) [Compound 24] returned an IC50 (MX1, 72 h) of 0.7 µM.

Take `O=C(CCC(=O)C1=CCCCC1)C1=CCCCC1` [Compound 10]: the IC50 (MX1, 72 h) was above 1000 µM.

Take `O=C(/C=C/c1ccc(O)cc1)CC1CCC=CC1=O` (centres unmarked) [Compound 25]: the IC50 under setting [1] was 0.16 µM.

Turning to `O=C1c2cc(F)ccc2OCC1C1COc2ccc(F)cc2C1=O` (centres unmarked) [Compound 18], under setting [1], the IC50 was above 1000 µM.

Consider `COc1ccc(/C=C/C(=O)/C=C/C(=O)N2CCN(c3ccccc3)CC2)cc1OC` [Compound 38], for which the IC50 (MX1, 72 h) was 0.25 µM.

Compound `COc1ccc2c(c1)CCC(C1CCc3cc(OC)ccc3C1=O)C2=O` (centres unmarked) [Compound 5] showed an IC50 (MX1, 72 h) above 1000 µM.
